The conditions of data set [1]: humans, transnasal, Cremophor EL vehicle; cited from earlier work.
The nature of data set [2]: Pharmacokinetic test of lorazepam-containing nasal formulation in rabbit (bioavailability test). The following applies: plasma, other: transnasal, 1.6 mg/kg.
Protocol: Right before this experiment, rabbits (n=3) were weighed, and a mixed solution including 25 mg of ketamine and 4 mg of xylazine was intramuscularly injected to the rabbits per kilogram (Kg) in order to anesthetize the rabbits, and a catheter was fastened to each rabbit to collect blood from rabbits' otic artery. An intravenous injection was performed by administering the mixed solution to the rabbits via the rabbits' otic artery at a dose of 1 mg/kg for approximately 20 seconds. […] Then, each formulation was sprayed to the rabbits using a Pfeiffer nasal spry system.
Blood samples (1 Ml) were collected from the rabbits' otic artery at 0, 2, 5, 10, 20, 30, 45, 60 and 120 minutes after the intravenous injection and transnasal administration of each formulation. Each of the blood samples was centrifuged to separate rabbit plasma, which was stored at −20° C. until is will be used for analysis. In order to analyze the plasma samples, each of the plasma samples (0.5 Ml) was exactly transferred to a 1.5 Ml polypropylene centrifuge tube. […]
In this case, the lorazepam was set to a concentration of 9%, and was administered at a dose of 1.6 mg/kg. […] Each plasma sample pre-treated with acetonitrile was quantified under the following LC/MS/MS conditions. […] The ionization was analyzed in a positive mode using an electrospray ionization (ESI) method, and the ion spray temperature was set to 500° C.

Data on 2 molecules can be found in patent US8592406B2, “Transnasal anticonvulsive pharmaceutical composition comprising poorly soluble anticonvulsant” (SK Biopharmaceuticals Co., Ltd., priority 2008, dated 2013).

With `CN1C(=O)CN=C(c2ccccc2)c2cc(Cl)ccc21` [diazepam], in data set [1], the “Peak concentration versus intravenous administration” value is listed as “lower than that observed after the intravenous administration”.
`O=C1Nc2ccc(Cl)cc2C(c2ccccc2Cl)=NC1O` (centres unmarked) [lorazepam] displayed a bioavailability in data set [2] of 35%.
